ChEMBL document CHEMBL1201862, “PubChem BioAssay data set” (2004)
Activity calls are given as the source filed them.

How the values were obtained:
[1] = biological target: T1, RNA-binding protein pos-1 (Caenorhabditis elegans, UniProt G5EF15); assay: disruptors of C. elegans POS-1 RNA interaction – biochemical, fluorescence polarization, dose response (AID 1964);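 note: purified POS-1 fused to maltose binding protein made in E. coli; potency of compounds blocking POS-1 binding to fluorescent RNA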
T1 sequence (G5EF15 whole entry): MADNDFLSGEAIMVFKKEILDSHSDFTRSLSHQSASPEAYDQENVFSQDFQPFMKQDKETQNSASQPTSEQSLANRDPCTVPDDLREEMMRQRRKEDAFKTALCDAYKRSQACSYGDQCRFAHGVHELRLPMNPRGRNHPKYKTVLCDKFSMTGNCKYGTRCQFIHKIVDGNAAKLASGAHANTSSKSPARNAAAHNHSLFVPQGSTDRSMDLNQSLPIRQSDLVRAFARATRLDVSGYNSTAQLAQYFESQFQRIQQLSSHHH

[2] = biological target: T2, Zinc finger protein mex-5 (Caenorhabditis elegans, UniProt Q9XUB2); assay: potency of MEX-5 RNA-binding blockers – biochemical, C. elegans, fluorescence polarization, dose response (AID 1960)
T2 sequence (Q9XUB2 whole entry): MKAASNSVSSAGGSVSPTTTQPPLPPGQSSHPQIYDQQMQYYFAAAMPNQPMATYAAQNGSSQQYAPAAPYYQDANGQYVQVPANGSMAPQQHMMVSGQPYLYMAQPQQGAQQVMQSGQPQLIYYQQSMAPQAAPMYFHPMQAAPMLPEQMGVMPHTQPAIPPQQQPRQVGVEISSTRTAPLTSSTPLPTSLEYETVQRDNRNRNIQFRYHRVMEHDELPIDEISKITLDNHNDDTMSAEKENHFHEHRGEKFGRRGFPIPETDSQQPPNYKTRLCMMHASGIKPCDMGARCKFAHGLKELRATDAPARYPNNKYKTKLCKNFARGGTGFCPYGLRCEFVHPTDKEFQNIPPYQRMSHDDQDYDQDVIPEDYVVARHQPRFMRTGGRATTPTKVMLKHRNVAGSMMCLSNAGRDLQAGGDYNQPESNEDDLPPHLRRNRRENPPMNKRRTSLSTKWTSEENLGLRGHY

[3] = viability of HCT116 lacking mutant beta-catenin – cell-based, human colon tumor, dose response (AID 1045); assay type: functional;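 note: HCT116 colon tumor cells with beta catenin knocked out; cells exposed to compound for 60 hours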
[4] = viability of PTEN-deleted HCT116 cells – cell-based, HCT116 PTEN knockout, dose response (AID 1047); assay type: functional;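 note: HCT116 colon tumor cells with PTEN knocked out; cells exposed to compound for 60 hours before readout; potency for loss of cell viability measured by luminescence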
Genome polyprotein = Genome polyprotein (dengue virus type 2, UniProt P29990); assay: flavivirus cap methylation enzyme inhibition – biochemical, confirmation dose response, primary screen (AID 588689); assay type: functional
Protein RecA = biological target: T3, Protein RecA (Mycobacterium tuberculosis, UniProt P9WHJ3); assay: Fluorescence Cell-Free Homogeneous Dose Retest to Identify Inhibitors of RecA-Intein Splicing Activity. [Related pubchem assays (depositor defined):AID2097, AID2223, AID489010, AID492950]; assay type: functional
T3 sequence (P9WHJ3 whole entry): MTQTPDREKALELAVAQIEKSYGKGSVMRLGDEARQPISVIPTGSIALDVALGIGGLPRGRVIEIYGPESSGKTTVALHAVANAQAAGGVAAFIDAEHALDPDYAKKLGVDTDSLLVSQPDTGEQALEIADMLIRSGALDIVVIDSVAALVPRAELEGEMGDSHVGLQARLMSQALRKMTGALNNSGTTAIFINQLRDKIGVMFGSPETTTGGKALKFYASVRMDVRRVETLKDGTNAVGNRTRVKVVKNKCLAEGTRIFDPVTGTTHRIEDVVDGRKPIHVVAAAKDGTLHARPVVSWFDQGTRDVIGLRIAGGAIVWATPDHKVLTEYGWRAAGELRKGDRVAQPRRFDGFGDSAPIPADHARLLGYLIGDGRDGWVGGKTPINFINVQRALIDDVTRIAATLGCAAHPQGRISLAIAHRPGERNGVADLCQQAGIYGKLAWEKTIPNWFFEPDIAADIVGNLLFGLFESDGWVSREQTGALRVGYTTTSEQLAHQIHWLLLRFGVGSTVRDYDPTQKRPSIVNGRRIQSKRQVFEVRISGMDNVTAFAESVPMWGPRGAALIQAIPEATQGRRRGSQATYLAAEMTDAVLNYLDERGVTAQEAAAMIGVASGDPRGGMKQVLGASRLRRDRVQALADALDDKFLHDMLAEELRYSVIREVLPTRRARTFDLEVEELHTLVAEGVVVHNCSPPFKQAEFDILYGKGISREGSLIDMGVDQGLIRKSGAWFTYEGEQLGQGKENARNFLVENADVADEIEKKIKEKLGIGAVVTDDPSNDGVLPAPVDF

[5] = biological target: T4, Replicative DNA helicase DnaB (Mycobacterium tuberculosis, UniProt P9WMR3); assay: DnaB intein splicing inhibitors, dose response, biochemical, cell-free fluorescence (AID 449749); assay type: functional
T4 sequence (P9WMR3 whole entry): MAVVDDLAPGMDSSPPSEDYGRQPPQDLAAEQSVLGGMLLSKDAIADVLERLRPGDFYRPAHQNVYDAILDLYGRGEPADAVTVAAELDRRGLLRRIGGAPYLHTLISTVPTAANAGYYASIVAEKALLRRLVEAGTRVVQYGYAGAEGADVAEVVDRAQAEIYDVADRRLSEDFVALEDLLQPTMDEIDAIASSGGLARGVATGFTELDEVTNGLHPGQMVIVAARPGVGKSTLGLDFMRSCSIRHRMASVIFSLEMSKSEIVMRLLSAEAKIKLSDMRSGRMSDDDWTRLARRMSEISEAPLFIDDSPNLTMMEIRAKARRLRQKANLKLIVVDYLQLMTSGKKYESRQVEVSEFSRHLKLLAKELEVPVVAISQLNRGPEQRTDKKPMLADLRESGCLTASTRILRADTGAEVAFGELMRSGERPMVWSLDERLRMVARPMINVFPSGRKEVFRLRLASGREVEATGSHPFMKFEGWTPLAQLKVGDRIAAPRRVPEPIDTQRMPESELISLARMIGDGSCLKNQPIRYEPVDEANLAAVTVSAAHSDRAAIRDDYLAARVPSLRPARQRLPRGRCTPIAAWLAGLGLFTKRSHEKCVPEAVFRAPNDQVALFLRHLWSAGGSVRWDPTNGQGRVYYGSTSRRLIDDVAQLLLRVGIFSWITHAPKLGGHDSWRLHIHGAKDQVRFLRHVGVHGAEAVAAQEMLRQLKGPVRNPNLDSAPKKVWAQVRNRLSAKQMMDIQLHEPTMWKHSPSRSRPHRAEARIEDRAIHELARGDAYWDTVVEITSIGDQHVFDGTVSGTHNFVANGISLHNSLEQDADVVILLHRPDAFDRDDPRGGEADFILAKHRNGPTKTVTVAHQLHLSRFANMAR

Cytochrome P450 2C19 = Cytochrome P450 2C19 (Homo sapiens, UniProt P33261); assay: Cytochrome panel assay with activity outcomes. Panel member name: p450-cyp2c19 Compounds with AC50 equal or less than 10 uM are considered active; assay type: functional; conditions: read-out: AC50
INS1 = assay: INS-1E survival protection against cytokine death – cell-based, luminescence, retest, dose response (AID 449756); assay type: functional; conditions: Rattus norvegicus;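 note: cell death triggered by IL-1 beta plus TNF-alpha plus IFN-gamma mixture; protective hits raise ATP signal compared with cytokine alone wells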
[6] = NIH3T3 cell viability loss – ATP luminescence, mouse fibroblasts, counter-screen, dose response (AID 2010); assay type: functional, cell-based;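 note: cells exposed to compound for about 90 hours before reading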
[7] = Trypanosoma cruzi growth suppression in host cells – NIH3T3 host cells, beta-gal luminescence, confirmation (AID 2044); assay type: functional, cell-based;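 note: intracellular parasites grown in NIH/3T3 mouse fibroblasts as host cells; luminescent beta-galactosidase reporter signal from transgenic T. cruzi replicating inside host cells; inhibitors lower the luminescence signal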
Vero = assay: cells; assay type: functional, Chlorocebus sabaeus; conditions: Chlorocebus sabaeus, Vero
[8] = biological target: T5, Heat shock factor protein 1 (Mus musculus, UniProt P38532); assay: decrease of HSF1-responsive luciferase luminescence – cell-based, NIH3T3, dose retest, confirmation (AID 2382); assay type: functional;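 note: NIH3T3 fibroblasts with HSF1-driven luciferase reporter stressed by proteasome inhibitor MG132; luminescence from HSF1-driven luciferase expression after 8 hours of MG132 stress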
T5 sequence (P38532 whole entry): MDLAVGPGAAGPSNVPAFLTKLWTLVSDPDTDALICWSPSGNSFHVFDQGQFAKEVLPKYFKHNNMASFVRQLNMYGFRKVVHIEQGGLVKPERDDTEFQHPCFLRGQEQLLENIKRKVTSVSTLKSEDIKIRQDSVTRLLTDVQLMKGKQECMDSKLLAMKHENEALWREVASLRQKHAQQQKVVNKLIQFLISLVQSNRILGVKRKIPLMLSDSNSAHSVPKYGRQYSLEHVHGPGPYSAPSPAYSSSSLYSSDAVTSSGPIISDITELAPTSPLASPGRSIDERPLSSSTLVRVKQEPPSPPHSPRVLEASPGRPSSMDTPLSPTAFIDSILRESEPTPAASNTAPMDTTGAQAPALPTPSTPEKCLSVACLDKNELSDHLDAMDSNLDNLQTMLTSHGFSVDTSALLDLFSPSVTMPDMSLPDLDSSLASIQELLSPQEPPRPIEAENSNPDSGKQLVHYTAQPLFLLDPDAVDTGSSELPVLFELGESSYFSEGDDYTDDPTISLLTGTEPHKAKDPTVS

[9] = HIV-1 AD8 envelope cell-cell fusion blockers – cherry-pick, dose response (AID 652062); assay type: functional, cell-based;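 note: luciferase signal from cell-cell fusion driven by HIV-1 clade B AD8 Env; potency is for inhibitors of fusion seen as a drop in luminescence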
H4 = assay: Luminescence Cell-Based Dose Response HTS to Identify Activators of 5'UTR Stem-Loop Driven Prion Protein mRNA Translation in H4 Neuroglioblastoma Cells. [Related pubchem assays: 1829 (Project Summary), 1814 (Primary HTS)]; assay type: functional; conditions: Homo sapiens
[10] = Luminescence Cell-Based Dose Response HTS to Identify Activators of Luciferase Translation or Activity in H4 […] Cells. [Related pubchem assays: 1829 (Project Summary), 1814 (Primary HTS)]; assay type: functional
[11] = Luminescence Cell-Based Dose Confirmation HTS to Identify Activators of 5'UTR Stem-Loop Driven Alpha-Synuclein mRNA Translation in H4 Neuroglioblastoma Cells. [Related pubchem assays: 1829 (Project Summary), 1814 (Primary HTS)]; assay type: functional

Genome polyprotein, sequence (P29990 2492-3391 limits assumed): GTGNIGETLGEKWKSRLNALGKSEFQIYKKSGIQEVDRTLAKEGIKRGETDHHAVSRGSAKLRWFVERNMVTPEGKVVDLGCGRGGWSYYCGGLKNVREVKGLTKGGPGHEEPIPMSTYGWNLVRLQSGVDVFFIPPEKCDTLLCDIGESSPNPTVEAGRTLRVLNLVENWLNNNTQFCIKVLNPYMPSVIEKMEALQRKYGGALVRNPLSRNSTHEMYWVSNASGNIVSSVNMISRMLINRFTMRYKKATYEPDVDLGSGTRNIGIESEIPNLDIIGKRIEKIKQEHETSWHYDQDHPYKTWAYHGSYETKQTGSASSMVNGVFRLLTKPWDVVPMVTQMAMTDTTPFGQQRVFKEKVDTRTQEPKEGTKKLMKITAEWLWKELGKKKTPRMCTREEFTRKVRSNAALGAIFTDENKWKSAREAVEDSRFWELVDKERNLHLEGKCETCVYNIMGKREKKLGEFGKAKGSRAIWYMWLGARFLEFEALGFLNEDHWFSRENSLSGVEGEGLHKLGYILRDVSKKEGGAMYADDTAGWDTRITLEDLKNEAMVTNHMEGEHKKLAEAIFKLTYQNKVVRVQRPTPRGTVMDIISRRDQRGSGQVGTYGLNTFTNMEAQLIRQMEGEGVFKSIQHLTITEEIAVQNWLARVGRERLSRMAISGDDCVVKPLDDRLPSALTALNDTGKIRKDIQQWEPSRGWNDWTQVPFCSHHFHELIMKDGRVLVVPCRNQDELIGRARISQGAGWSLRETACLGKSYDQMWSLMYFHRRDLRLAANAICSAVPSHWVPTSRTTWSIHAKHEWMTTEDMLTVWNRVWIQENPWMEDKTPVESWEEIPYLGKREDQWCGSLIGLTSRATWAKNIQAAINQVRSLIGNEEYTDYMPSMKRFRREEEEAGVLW
Cytochrome P450 2C19, sequence (P33261 whole entry): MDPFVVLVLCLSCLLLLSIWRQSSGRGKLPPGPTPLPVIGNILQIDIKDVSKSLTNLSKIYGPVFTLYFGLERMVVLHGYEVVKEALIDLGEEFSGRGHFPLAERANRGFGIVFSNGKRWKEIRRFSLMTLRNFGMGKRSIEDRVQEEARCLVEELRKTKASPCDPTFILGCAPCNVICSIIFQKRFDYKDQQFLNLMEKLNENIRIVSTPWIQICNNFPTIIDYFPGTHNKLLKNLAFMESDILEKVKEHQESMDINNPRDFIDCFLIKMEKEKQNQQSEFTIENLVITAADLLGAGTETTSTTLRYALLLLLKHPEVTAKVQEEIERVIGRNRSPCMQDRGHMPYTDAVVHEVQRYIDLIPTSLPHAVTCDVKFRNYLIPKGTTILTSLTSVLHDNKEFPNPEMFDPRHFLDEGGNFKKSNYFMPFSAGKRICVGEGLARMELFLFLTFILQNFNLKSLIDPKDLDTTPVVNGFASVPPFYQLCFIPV

O=C(O)c1ccccc1-n1cccc1C(=O)O
EC50 [1]: > 300 µM (not active)
EC50 [2]: > 300 µM (not active)

O=C1c2cccc3c([N+](=O)[O-])ccc(c23)C(=O)N1c1nccs1
EC50 [3]: 11.9 µM (active)
EC50 [4]: 21.6 µM (active)

O=C1CNC(=O)/C1=C/c1ccc(Br)cc1
IC50 (Genome polyprotein): > 100 µM (active)

COc1cccc(/C=C2\SC(=S)N(C(C(=O)O)c3ccccc3)C2=O)c1OC (centres undefined)
IC50 (Genome polyprotein): 49.7 µM (active)

Cc1ccc(N2C(=O)C(Cl)=C(N3CCOCC3)C2=O)cc1Cl
IC50 (Genome polyprotein): 34.7 µM (active)
EC50 (Protein RecA): 2.61 µM (active)
AC50 [5]: 6.76 µM (active)

Cc1ccc(NCc2nnc(SCC(=O)Nc3ncc(C)s3)n2Cc2ccco2)c(C)c1
EC50 [3]: 23.8 µM (active)
EC50 [4]: 23.3 µM (active)

O=c1c2ccccc2nc(CSc2[nH]cnc3ncnc2-3)n1-c1ccccc1
EC50 [3]: 28.9 µM (active)
EC50 [4]: 14.9 µM (active)

COC(=O)CCC(=O)OC1(C)C(=O)C=C2C=C(C3CC3)N(c3ccc(CO)cc3)C=C2C1=O (centres undefined)
EC50 [1]: 25.5 µM (active)
EC50 [2]: 23.5 µM (active)

COc1ccc(CNCCC(c2ccc(OC(C)C)cc2)C(C)C)cc1OC (centres undefined)
EC50 [3]: 10.7 µM (active)
AC50 (Cytochrome P450 2C19): 10 µM (inconclusive)
AC50 (INS1): 12.7 µM (active)
EC50 [6]: 9.8 µM (active)
EC50 [7]: 0.416 µM (active)
EC50 [4]: 13 µM (active)

O=C(CCN1C(=O)C2C3C=CC(C4CC34)C2C1=O)Oc1cccc2cccnc12 (centres undefined)
EC50 [3]: 16.7 µM (active)
EC50 [4]: 18.8 µM (active)

Cc1cc([N+](=O)[O-])cc2c1NCC1CC=CC21 (centres undefined)
EC50 [1]: > 300 µM (not active)
EC50 [2]: > 300 µM (not active)

Nc1c(C(=O)NCc2ccc(F)cc2)c2nc3ccccc3nc2n1CCCN1CCOCC1
EC50 [3]: 18.9 µM (active)
EC50 [4]: 21.5 µM (active)

Cc1noc(/C=C/c2cccnc2)c1[N+](=O)[O-]
CC50 (Vero): 17.3 µM (active)
EC50 [6]: 18.4 µM (active)
EC50 [7]: 2.34 µM (active)

CCn1nccc1C(=O)Nc1ccc(S(=O)(=O)NC23CC4CC(CC(C4)C2)C3)cc1
EC50 [3]: 27.9 µM (active)
EC50 [4]: 24.3 µM (active)

COCCn1c(N)c(NCc2ccccc2)c(=O)[nH]c1=O
EC50 [1]: 5.47 µM (inconclusive)
EC50 [2]: 3.03 µM (active)

Cc1ccc(N2C(=O)NC(=O)/C(=C/c3cnn(-c4ccc(C)cc4)c3)C2=O)cc1
EC50 [1]: > 300 µM (not active)
EC50 [8]: > 195 µM (not active)
EC50 [2]: 67.5 µM (active)

O=C(Nc1ccc(F)cc1)c1nc[nH]c1C(=O)Nc1ccccc1[N+](=O)[O-]
EC50 [3]: 4.18 µM (active)
EC50 [4]: 3.08 µM (active)

CCc1ccc(Nc2ccc(C(=O)O)cc2[N+](=O)[O-])cc1
IC50 (Genome polyprotein): > 100 µM (active)

O=C(Nc1cccn(Cc2c(Cl)cccc2Cl)c1=O)c1ccc(Cl)cc1
AC50 [9]: 8.74 µM (active)

Cc1n[nH]c(C)c1S(=O)(=O)N1CCCC(C(=O)Nc2ccc(Br)cc2)C1 (centres undefined)
EC50 (H4): > 120 µM (not active)
EC50 [1]: > 300 µM (not active)
EC50 [10]: > 120 µM (not active)
EC50 [2]: > 300 µM (not active)
EC50 [11]: > 120 µM (not active)

COC1C=COC2(C)Oc3c(C)c(O)c4c(O)c(c(CN5CCN(C)CC5)c(O)c4c3C2=O)NC(=O)C(C)=CC=CC(C)C(O)C(C)C(O)C(C)C(OC(C)=O)C1C (centres undefined)
IC50 (Genome polyprotein): 96.6 µM (active)

CN1CCN(C(=O)CCN2C(=O)/C(=C\c3ccc(Cl)cc3)SC2=S)CC1
CC50 (Vero): 15.8 µM (active)

O=C1NC(=O)C(=Cc2c(Cl)cccc2Cl)C(=O)N1
IC50 (Genome polyprotein): 43.4 µM (active)

O=C(C[C@H]1C[C@H]2c3cc(NC(=O)C4CCC4)ccc3O[C@H]2[C@H](CO)O1)NCc1ccc2c(c1)OCO2
AC50 [9]: 4.08 µM (active)

CCN1CCN(c2cc(C)c3cc(NC(=O)c4cccc(OC)c4)ccc3n2)CC1
EC50 (H4): 17.9 µM (active)
EC50 [10]: 16 µM (active)
CC50 (Vero): > 25 µM (active)
EC50 [11]: 13.5 µM (active)
